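Cultured in 96-well plates, cells were exposed to test compound for 48 hours across five concentrations. TGI denotes the concentration required for complete inhibition of growth.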
Tests used:
Test in all cases: NCI-60 cell line screen, 48 h
A498 renal = test system: A498 renal
A549 NSCLC = test system: A549 NSCLC
BT-549 breast = test system: BT-549 breast
CAKI-1 renal = test system: CAKI-1 renal
CCRF-CEM leukemia = test system: CCRF-CEM leukemia
COLO 205 colon = test system: COLO 205 colon
DU-145 prostate = test system: DU-145 prostate
EKVX NSCLC = test system: EKVX NSCLC
HCC-2998 colon = test system: HCC-2998 colon
HCT-116 colon = test system: HCT-116 colon
HCT-15 colon = test system: HCT-15 colon
HL-60(TB) leukemia = test system: HL-60(TB) leukemia
HOP-62 NSCLC = test system: HOP-62 NSCLC
HOP-92 NSCLC = test system: HOP-92 NSCLC
HS 578T breast = test system: HS 578T breast
HT29 colon = test system: HT29 colon
IGROV1 ovarian = test system: IGROV1 ovarian
K-562 leukemia = test system: K-562 leukemia
LOX IMVI melanoma = test system: LOX IMVI melanoma
M14 melanoma = test system: M14 melanoma
MALME-3M melanoma = test system: MALME-3M melanoma
MCF7 breast = test system: MCF7 breast
MDA-MB-231 breast = test system: MDA-MB-231 breast
MDA-MB-435 = test system: MDA-MB-435
MOLT-4 leukemia = test system: MOLT-4 leukemia
NCI-H226 lung = test system: NCI-H226 lung
NCI-H23 lung = test system: NCI-H23 lung
NCI-H460 lung = test system: NCI-H460 lung
NCI/ADR-RES ovarian = test system: NCI/ADR-RES ovarian
OVCAR-3 ovarian = test system: OVCAR-3 ovarian
OVCAR-4 ovarian = test system: OVCAR-4 ovarian
OVCAR-5 ovarian = test system: OVCAR-5 ovarian
OVCAR-8 ovarian = test system: OVCAR-8 ovarian
PC-3 prostate = test system: PC-3 prostate
RXF 393 renal = test system: RXF 393 renal
SF-268 CNS = test system: SF-268 CNS
SF-295 CNS = test system: SF-295 CNS
SF-539 CNS = test system: SF-539 CNS
SK-MEL-2 melanoma = test system: SK-MEL-2 melanoma
SK-MEL-28 melanoma = test system: SK-MEL-28 melanoma
SK-MEL-5 melanoma = test system: SK-MEL-5 melanoma
SK-OV-3 ovarian = test system: SK-OV-3 ovarian
SN12C renal = test system: SN12C renal
SNB-75 CNS = test system: SNB-75 CNS
SR leukemia = test system: SR leukemia
SW-620 colon = test system: SW-620 colon
T-47D breast = test system: T-47D breast
TK-10 renal = test system: TK-10 renal
UACC-257 melanoma = test system: UACC-257 melanoma
UACC-62 melanoma = test system: UACC-62 melanoma
UO-31 renal = test system: UO-31 renal

Nc1[nH]nc2c1Cc1c(n(Cc3ccc(Cl)cc3)c3ccccc13)C(=O)N2
TGI (A498 renal): 29.7 µM | TGI (A549 NSCLC): 46.2 µM | TGI (BT-549 breast): 36.6 µM | TGI (CAKI-1 renal): 23.5 µM | TGI (CCRF-CEM leukemia): 26.6 µM | TGI (COLO 205 colon): 23.7 µM | TGI (DU-145 prostate): 24.4 µM | TGI (EKVX NSCLC): 59.2 µM | TGI (HCC-2998 colon): 24.6 µM | TGI (HCT-116 colon): 21.8 µM | TGI (HCT-15 colon): 16.8 µM | TGI (HL-60(TB) leukemia): 10.2 µM | TGI (HOP-62 NSCLC): 31.1 µM | TGI (HOP-92 NSCLC): 31.5 µM | TGI (HS 578T breast): 40.2 µM | TGI (HT29 colon): 34.9 µM | TGI (IGROV1 ovarian): 31.8 µM | TGI (K-562 leukemia): > 100 µM | TGI (LOX IMVI melanoma): 26.4 µM | TGI (M14 melanoma): 26 µM | TGI (MALME-3M melanoma): 52.3 µM | TGI (MCF7 breast): 26.9 µM | TGI (MDA-MB-231 breast): 30.6 µM | TGI (MDA-MB-435): 16.5 µM | TGI (MOLT-4 leukemia): 29.3 µM | TGI (NCI-H226 lung): 44.7 µM | TGI (NCI-H23 lung): 23.9 µM | TGI (NCI-H460 lung): 27.3 µM | TGI (NCI/ADR-RES ovarian): 44.6 µM | TGI (OVCAR-3 ovarian): 30.5 µM | TGI (OVCAR-4 ovarian): 32 µM | TGI (OVCAR-5 ovarian): 27.3 µM | TGI (OVCAR-8 ovarian): 39.2 µM | TGI (PC-3 prostate): 23.5 µM | TGI (RXF 393 renal): 25.9 µM | TGI (SF-268 CNS): 47.8 µM | TGI (SF-295 CNS): 35.9 µM | TGI (SF-539 CNS): 29.9 µM | TGI (SK-MEL-2 melanoma): 34.3 µM | TGI (SK-MEL-28 melanoma): > 100 µM | TGI (SK-MEL-5 melanoma): 17.6 µM | TGI (SK-OV-3 ovarian): 34.6 µM | TGI (SN12C renal): 28 µM | TGI (SNB-75 CNS): 30.6 µM | TGI (SR leukemia): > 100 µM | TGI (SW-620 colon): > 100 µM | TGI (T-47D breast): 28.9 µM | TGI (TK-10 renal): 35 µM | TGI (UACC-257 melanoma): 46.4 µM | TGI (UACC-62 melanoma): > 100 µM | TGI (UO-31 renal): 19.4 µM

Source: PubChem BioAssay (NCI)
